Measured values from ChEMBL document CHEMBL1141818, “Annonaceous acetogenins: recent progress” (J Nat Prod, 1999).
≈ marks a conversion by molar mass, not a printed value.

How the values were obtained:
HT-29 = experiment: Cytotoxicity against human HT-29 cells; type: functional; conditions: Homo sapiens, HT-29; read-out: ED50 (the source's name)
Artemia = experiment: (§1) Toxicity in brine shrimp; type: organism-based; conditions: in vivo
MCF7 = experiment: Cytotoxicity against human MCF7 cells; type: functional; conditions: for EC50: Homo sapiens, MCF7, read-out: ED50 (the source's name)
A549 = experiment: Cytotoxicity against human A549 cells; type: functional; conditions: for EC50: Homo sapiens, A549, read-out: ED50 (the source's name)
PC-3 = experiment: Cytotoxicity against human PC-3 cells; type: functional; conditions: Homo sapiens, PC-3; read-out: ED50 (the source's name)
MIA PaCa-2 = experiment: Cytotoxicity against human MIA PaCa2 cells; type: functional; conditions: for EC50: Homo sapiens, MIA PaCa-2, read-out: ED50 (the source's name)
A498 = experiment: Cytotoxicity against human A-498 cells; type: functional; conditions: Homo sapiens, A498; read-out: ED50 (the source's name)
HCT-8 = experiment: Cytotoxicity against human HCT8 cells; type: functional, cell-based
KB = experiment: Cytotoxicity against human KB cells; type: functional, cell-based; conditions: for IC50: Homo sapiens, KB
Blattella germanica [1] = experiment: Ratio of LT50 for Blattella germanica Muncie second instars to LT50 for Blattella germanica Jwax second instars; type: functional
Blattella germanica [2] = experiment: Ratio of LT50 for Blattella germanica Muncie fifth instars to LT50 for Blattella germanica Jwax fifth instars; type: functional
Bel-7402 = experiment: Cytotoxicity against human Bel-7402 cells; type: functional, cell-based
[3] = as §1; type: organism-based; conditions: artemia, in vivo

Structure (SMILES)	EC50 (HT-29)	EC50 (MCF7)	EC50 (A549)	EC50 (PC-3)	EC50 (MIA PaCa-2)	EC50 (A498)	LC50 [3]	further results
CCCCCCCCCC[C@H](O)[C@H]1CC[C@H]([C@H](O)CCCCCC(O)CCCCCCC2CC(CC(C)=O)C(=O)O2)O1 (mixture of isomers)	0.35 µg/mL	0.0011 µg/mL	0.21 µg/mL	2.24 µg/mL	0.0095 µg/mL	0.0067 µg/mL		LC50 (Artemia): 9.7 ×10⁻² ug/ml
CCCCCCCCCCCC[C@@H](O)[C@H]1CC[C@H]([C@H](O)CCCCCCCCCC[C@@H](O)CC2=C[C@@](C)(O)OC2=O)O1 [DONNAIENIN A]								IC50 (HCT-8): < 10 µg/mL; IC50 (KB): < 1 µg/mL
CCCCCCCCCCCC[C@@H](O)[C@H]1CC[C@H]([C@H](O)CCCCC(O)CCCCC[C@@H](O)CC2=C[C@@](C)(O)OC2=O)O1 (stereo not given in full) [GONIODONIN]								IC50 (HCT-8): < 10 µg/mL
CCCCCCCCCCCCCC[C@H](O)[C@@H](O)CC[C@H](O)[C@@H]1CC[C@@H](CCCCC[C@@H](O)CC2=C[C@@](C)(O)OC2O)O1 (stereo not given in full) [DONNAIENIN B]								IC50 (KB): 10 µg/mL (≈ 16.3 µM)
CCCCCCCCCCCC[C@H](O)[C@H]1CC[C@H]([C@H](O)CCCCCC(O)CCCCCCC2CC(CC(C)=O)C(=O)O2)O1 (mixture of isomers) [(2,4-CIS/TRANS)-SQUAMOXINE B]	0.0027 µg/mL	0.0014 µg/mL	0.0038 µg/mL	0.05 µg/mL		0.004 µg/mL		LC50 (Artemia): 4.6 ×10⁻² ug/ml; ED50 (MIA PaCa-2): 8.3 ×10⁻⁴ ug/ml
CCCCCCCCCC[C@@H](O)[C@@H]1CC[C@H]([C@H](O)CC[C@H](O)[C@@H]2CC[C@@H](CCCCCCC[C@@H](O)CC3=C[C@H](C)OC3=O)O2)O1 [SYLVATICIN]								Ratio (Blattella germanica [1]): 1.7; Ratio (Blattella germanica [2]): 3.9
CCOP(=S)(OCC)Oc1nc(Cl)c(Cl)cc1Cl [CHLORPYRIFOS]								Ratio (Blattella germanica [1]): 3.8; Ratio (Blattella germanica [2]): 8
CCCCCCCCCCCC[C@@H](O)[C@H](O)CC[C@@H](O)[C@H](O)CCCC[C@H](O)CCCCC[C@H](CC1=C[C@@](C)(O)OC1=O)OC(C)=O [DONNAIENIN D]								IC50 (Bel-7402): > 10 µg/mL; IC50 (HCT-8): > 10 µg/mL; IC50 (KB): > 10 µg/mL
CCCCCCCCCCCCCC[C@H](O)[C@@H]1C[C@@H](O)[C@@H]([C@@H](O)CC[C@@H](O)CCCCC[C@@H](O)CC2=C[C@H](C)OC2=O)O1 [DONNAIENIN]								IC50 (Bel-7402): 6.7 µg/mL (≈ 10.9 µM); IC50 (HCT-8): 6.6 µg/mL (≈ 10.8 µM); IC50 (KB): > 10 µg/mL
CCCCC[C@H](O)CCCC[C@H](O)[C@H]1CC[C@H]([C@H]2CC[C@H]([C@H](O)CCCC[C@H](O)CCCCCCCC3=C[C@H](C)OC3=O)O2)O1 [PURPURENIN]	0.32 µg/mL (≈ 0.501 µM)	1.7 µg/mL (≈ 2.66 µM)	1.3 µg/mL (≈ 2.03 µM)	1.1 µg/mL (≈ 1.72 µM)	2 µg/mL (≈ 3.13 µM)	1.3 µg/mL (≈ 2.03 µM)		LC50 (Artemia): 2.9 ×10⁻² ug/ml
CNC(=O)Oc1ccccc1OC(C)C [PROPOXUR]								Ratio (Blattella germanica [1]): 3.8; Ratio (Blattella germanica [2]): 1.7
CCCCCCCCCCCC[C@H](O)[C@H](O)CC[C@H](O)[C@@H]1CC[C@@H](C[C@H](O)CCCCC[C@@H](O)CC2=C[C@H](C)OC2=O)O1 [ANNOPENTOCIN C]	1.2 µg/mL (≈ 1.96 µM)	0.3 µg/mL (≈ 0.489 µM)	0.021 µg/mL (≈ 0.0343 µM)	0.23 µg/mL (≈ 0.375 µM)	0.43 µg/mL (≈ 0.702 µM)	0.26 µg/mL (≈ 0.424 µM)	14 µg/mL (≈ 22.8 µM)	
CCCCCCCCCCCC[C@@H](O)[C@H]1CCC(C2CCC(CC(O)CCCCC[C@@H](O)CC3=C[C@H](C)OC3=O)O2)O1 (stereo not given in full) [ROLLINACIN]	2.1 µg/mL (≈ 3.53 µM)	0.16 µg/mL (≈ 0.269 µM)	0.046 µg/mL (≈ 0.0773 µM)	2.5 µg/mL (≈ 4.2 µM)	2 µg/mL (≈ 3.36 µM)	1.6 µg/mL (≈ 2.69 µM)	3.5 µg/mL (≈ 5.88 µM)	
CCCCCCCCCCCCCC[C@H]1O[C@@H]([C@H](O)CC[C@H](O)CCCCC[C@@H](O)CC2=C[C@H](C)OC2=O)CC[C@H]1O [PYRAGONICIN]	2.8 µg/mL (≈ 4.69 µM)	1.6 µg/mL (≈ 2.68 µM)	2 µg/mL (≈ 3.35 µM)	0.12 µg/mL (≈ 0.201 µM)	0.058 µg/mL (≈ 0.0972 µM)	0.13 µg/mL (≈ 0.218 µM)	0.9 µg/mL (≈ 1.51 µM)	
CCCCCCCCCCCC[C@@H](O)[C@@H](O)CC[C@H](O)[C@@H]1CC[C@@H](CCC[C@@H](O)[C@H](O)CC[C@@H](O)CC2=C[C@H](C)OC2=O)O1 [MURIHEXOCIN]	1.3 µg/mL (≈ 2.07 µM)	3.8 µg/mL (≈ 6.04 µM)	1.1 µg/mL (≈ 1.75 µM)	0.86 µg/mL (≈ 1.37 µM)	0.49 µg/mL (≈ 0.779 µM)	2.5 µg/mL (≈ 3.98 µM)	10 µg/mL (≈ 15.9 µM)	
CCCCCCCCCCCC[C@@H](O)[C@H]1CC[C@H]([C@H](O)CCCCCC[C@H](O)CCCCCCCC2=C[C@H](C)OC2=O)O1	0.14 µg/mL (≈ 0.23 µM)			0.17 µg/mL (≈ 0.279 µM)		0.15 µg/mL (≈ 0.246 µM)	0.13 µg/mL (≈ 0.213 µM)	ED50 (MCF7): 5.8 ×10⁻⁷ ug/ml; ED50 (A549): 6.5 ×10⁻⁷ ug/ml; ED50 (MIA PaCa-2): 1 ×10⁻⁵ ug/ml
CCCCCCCCCCCC[C@H](O)[C@H]1CC[C@H]([C@H](O)CCCC[C@H](O)CCCCCCC[C@@H](O)CC2=C[C@H](C)OC2=O)O1 [ANNOGLACIN A]	0.0053 µg/mL (≈ 0.00848 µM)		0.0053 µg/mL (≈ 0.00848 µM)	0.002 µg/mL (≈ 0.0032 µM)		0.9 µg/mL (≈ 1.44 µM)	0.49 µg/mL (≈ 0.784 µM)	ED50 (MCF7): 9.6 ×10⁻⁴ ug/ml; ED50 (MIA PaCa-2): 5.1 ×10⁻⁷ ug/ml
CCCCCCC(O)CCC[C@H](O)[C@@H]1CC[C@@H]([C@@H]2CC[C@H]([C@H](O)CCCCCCCCCCCCC3=C[C@H](C)OC3=O)O2)O1 (stereo not given in full) [CAROLIN A]								ED50 (KB): 1 ×10⁻⁷ ug/ml
